Test results from patent US20060287251A1, “Combination therapy for glycaemic control” (priority 2003, published 2006).

Legend:
[1] = test system: diet-induced obese (DIO) rats; experiment: Glycaemic control (OGTT) in diet-induced obese rats with impaired glucose tolerance; assay type: in vivo, rat; conditions: glutaminyl thiazolidine hydrochloride 60 mg/kg BID, Metformin 125 mg/kg BID
Protocol: Selectively bred male rats, 5-6 weeks of age, displaying enhanced likelihood of developing diet-induced obesity (DIO) are selected from the breeding colony. A total of 40 DIO animals are included in the study.
Upon entry to the experiment, rats are housed individually (1 rat/cage) in a 12/12 light-dark cyldle (light from 0600-1800 h) with controlled temperature conditions (22-24° C.). […] After one week of acclimatisation, 24 h food and water intake and body-weight is measured gravimetrically twice weekly (in the morning between 8-10 am). After 3 weeks of HF feeding, average daily food consumption is calculated for all rats. The average food intake comprises a platform from which a scheduled feeding regime is implemented. […]
This test is carried out at 8:00 AM on days 6 and 42. […] Blood samples are taken from an indwelling arterial catheter and P-glucose is measured on automated analyser (Roche Diagnostics) at time points −60, −30, 0, 15, 30, 60, 120, and 180 min after oral administration of 1 g/kg glucose (using 1 g/ml dH2O). […] P-insulin is measured at time points: 0, 15, 30, 60, 120 using an ultra-sensitive ELISA (Shibayagi,Japan).
All rats are equipped with intra-arterial catheters at day −7. […] All blood samples are taken in EDTA Vacutainer tubes and plasma glucose is measured together with total Cholesterol and triacylglycerol. […]

Zucker (fa/fa) rats = experiment: Combination therapy of glutaminyl thiazolidine with other oral antidiabetics in Zucker (fa/fa) rats; assay type: in vivo, rat; conditions: after 14 days subchronic medication; versus Control; GT 60 mg/kg b.w. b.i.d. oral
Protocol: Standard pelleted chow (ssniff®, Soest, Germany) and tap water acidified with HCl were allowed ad libitum. At the age of 12 weeks the animals (N=42) were divided in random order into six experimental groups to be medicated.
During the two weeks of medication morning blood glucose was measured before the 08:00 AM medication at Monday, Wednesday and Friday.
A second OGTT was performed after two weeks of medication (Day 15).

NC(=O)CC[C@H](N)C(=O)N1CCSC1 [glutaminyl thiazolidine]
oral glucose tolerance [1]: improved oral glucose tolerance | glucose tolerance, OGTT-2 (Zucker (fa/fa) rats): improved glucose tolerance
